Assay results taken from US4745191A, “1-((A-substituted phenyl-ω-substituted piperazinyl)alkenyl) cyclohexanol” (American Home Products Corporation, priority 1987, dated 1988).
Like-named read-outs stand apart in the source and are kept apart here.

Assays:
[1] = biological target: T1, 5-HT1A receptor (Rattus norvegicus, UniProt P19327); experiment: inhibition of [3H] 8-hydroxy-2-(di-n-propylamino)tetraline binding at 5-HT1A receptor binding sites in rat hippocampal tissue; conditions: for inhibition at 1 µM: read-out: Receptor Binding 5HT1A % Inhibition at 1 μM
T1 construct: from tissue; host or cells: rat hippocampal tissue
T1 sequence (P19327 1-422): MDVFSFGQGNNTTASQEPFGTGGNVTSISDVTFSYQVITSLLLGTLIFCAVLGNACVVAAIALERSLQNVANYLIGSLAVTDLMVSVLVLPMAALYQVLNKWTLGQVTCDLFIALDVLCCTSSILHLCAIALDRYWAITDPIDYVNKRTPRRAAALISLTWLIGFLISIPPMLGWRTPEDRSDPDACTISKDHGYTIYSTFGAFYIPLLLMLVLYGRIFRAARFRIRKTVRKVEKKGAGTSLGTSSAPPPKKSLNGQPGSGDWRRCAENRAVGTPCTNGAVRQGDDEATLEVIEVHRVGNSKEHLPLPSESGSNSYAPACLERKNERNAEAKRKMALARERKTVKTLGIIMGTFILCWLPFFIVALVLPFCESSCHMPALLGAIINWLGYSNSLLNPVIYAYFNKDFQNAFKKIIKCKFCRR
Excerpt: 8-hydroxy-2-(di-n-propylamino)tetraline binding at 5-HT binding sites in rat hippocamphal tissue, following the procedure of Hall et al., J. Neurochem., 44 1685 (1985).

[2] = biological target: T2, dopamine D2 receptor (Rattus norvegicus, UniProt P61169); experiment: inhibition of 3H-haloperidol binding at D2 receptors in homogenized limbic brain tissue
T2 construct: D2 receptors found in homogenized limbic brain tissue; from tissue; host or cells: homogenized limbic brain tissue
T2 sequence (P61169 whole entry): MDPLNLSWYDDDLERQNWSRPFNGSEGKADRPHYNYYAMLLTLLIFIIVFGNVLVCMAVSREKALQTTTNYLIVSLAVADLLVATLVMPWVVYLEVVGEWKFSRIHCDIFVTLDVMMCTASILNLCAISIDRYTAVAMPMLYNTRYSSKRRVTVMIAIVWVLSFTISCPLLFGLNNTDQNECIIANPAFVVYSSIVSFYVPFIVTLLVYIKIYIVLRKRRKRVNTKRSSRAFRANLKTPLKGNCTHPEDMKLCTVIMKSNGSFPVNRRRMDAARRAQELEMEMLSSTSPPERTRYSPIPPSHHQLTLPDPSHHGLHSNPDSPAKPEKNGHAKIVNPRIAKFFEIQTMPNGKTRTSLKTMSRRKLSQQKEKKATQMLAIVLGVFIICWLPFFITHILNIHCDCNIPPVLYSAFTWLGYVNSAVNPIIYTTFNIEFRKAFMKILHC
Excerpt: The actual percentage reduction of ^3 H-haloperidol binding is reported infra and the larger the number, the greater the potential for dopamine D2 receptor binding and antipsychotic activity.

[3] = tested on: 5HT (synaptosomal serotonin uptake); experiment: inhibition of synaptosomal uptake of serotonin (14C-5-HT); assay type: biochemical; conditions: synaptosomal 14C-5-HT uptake; for IC50: read-out: Neuronal Uptake 5HT IC50
[4] = tested on: NE (synaptosomal norepinephrine uptake); experiment: inhibition of synaptosomal uptake of norepinephrine (3H-NE); assay type: biochemical; conditions: synaptosomal 3H-NE uptake; for IC50: read-out: Neuronal Uptake NE IC50
[5] = at 1 μM, rat hippocampal tissue

SMILES	inhibition at 1 µM [2]	IC50 [3]	Ki ([1]; rat hippocampal tissue)	IC50 [4]	inhibition at 1 µM [1, 5]	other results
O=C1CC2(CCCC2)CC(=O)N1CCCCN1CCN(c2ncccn2)CC1 [Buspirone, reference compound]	–	–	–	–	–	inhibition at 1 µM [1]: 97%
COc1cccc(C(=CCN2CCN(Cc3ccccc3)CC2)C2(O)CCCCC2)c1 [Example 1, 1-[1-(3-methoxyphenyl)-3-[4-(phenylmethyl)-1-piperazinyl]-1-propenyl]cyclohexanol]	80%	1690 nM	3 nM	640 nM	–	–
COc1ccc(C(=CCN2CCN(Cc3ccccc3)CC2)C2(O)CCCCC2)cc1 [Example 2, 1-[1-(4-methoxyphenyl)-3-[4-(phenylmethyl)-1-piperazinyl]-1-propenyl]cyclohexanol]	66%	–	4 nM	–	–	–
COc1cccc(C(=CCN2CCN(Cc3cccc(Cl)c3)CC2)C2(O)CCCCC2)c1 [Example 4]	–	–	0.7 nM	–	–	Ki [2]: 17 nM; Neuronal Uptake 5HT % Inhibition at 10 μM ([3]; at 10 μM): 100%; Neuronal Uptake NE % Inhibition at 10 μM ([4]; at 10 μM): 100%
COc1cccc(C(=CCN2CCN(Cc3ccc(Cl)cc3)CC2)C2(O)CCCCC2)c1 [Example 5, 1-[3-[4-[(4-chlorophenyl)methyl]-1-piperazinyl]-1-(3-methoxyphenyl)-1-propenyl]cyclohexanol]	76%	–	–	–	99%	–
COc1cccc(C(=CCN2CCN(Cc3ccc(C(F)(F)F)cc3)CC2)C2(O)CCCCC2)c1 [Example 6, 1-[1-(3-methoxyphenyl)-3-[4-[[4-(trifluoromethyl)phenyl]methyl]-1-piperazinyl]-1-propenyl]cyclohexanol]	76%	–	–	–	99%	–
COc1cccc(C(=CCN2CCN(c3ncccn3)CC2)C2(O)CCCCC2)c1 [Example 7]	61%	2090 nM	49 nM	4820 nM	–	–
COc1cccc(C(=CCN2CCN(c3cncc(Cl)n3)CC2)C2(O)CCCCC2)c1 [Example 8, 1-[3-[4-(6-chloro-2-pyrazinyl)-1-piperazinyl]-1-(3-methoxyphenyl)-1-(3-methoxyphenyl)-1-propenyl]cyclohexanol]	–	–	138 nM	–	–	–
COc1ccc(C(=CCCN2CCN(Cc3ccccc3)CC2)C2(O)CCCCC2)cc1 [Example 10, 1-[1-(4-methoxyphenyl)-4-[4-(phenylmethyl)-1-piperazinyl]-1-butenyl]cyclohexanol]	53%	920 nM	–	190 nM	74%	–
